# According to ChEMBL document CHEMBL3132769, “Fragment growing to retain or alter the selectivity of anchored kinase hinge-binding fragments” (Medchemcomm, 2014):
# Assays:
# [1] = target: T1, Serine/threonine-protein kinase D1 (Homo sapiens) (UniProt Q15139); test: Inhibition of human full length PKD1 expressed in baculovirus assessed as substrate phosphorylation using fluorescence-labelled peptides as substrate at 95 uM after 90 mins by microfluidic peptide phosphorylation assay
# T1 sequence (whole entry): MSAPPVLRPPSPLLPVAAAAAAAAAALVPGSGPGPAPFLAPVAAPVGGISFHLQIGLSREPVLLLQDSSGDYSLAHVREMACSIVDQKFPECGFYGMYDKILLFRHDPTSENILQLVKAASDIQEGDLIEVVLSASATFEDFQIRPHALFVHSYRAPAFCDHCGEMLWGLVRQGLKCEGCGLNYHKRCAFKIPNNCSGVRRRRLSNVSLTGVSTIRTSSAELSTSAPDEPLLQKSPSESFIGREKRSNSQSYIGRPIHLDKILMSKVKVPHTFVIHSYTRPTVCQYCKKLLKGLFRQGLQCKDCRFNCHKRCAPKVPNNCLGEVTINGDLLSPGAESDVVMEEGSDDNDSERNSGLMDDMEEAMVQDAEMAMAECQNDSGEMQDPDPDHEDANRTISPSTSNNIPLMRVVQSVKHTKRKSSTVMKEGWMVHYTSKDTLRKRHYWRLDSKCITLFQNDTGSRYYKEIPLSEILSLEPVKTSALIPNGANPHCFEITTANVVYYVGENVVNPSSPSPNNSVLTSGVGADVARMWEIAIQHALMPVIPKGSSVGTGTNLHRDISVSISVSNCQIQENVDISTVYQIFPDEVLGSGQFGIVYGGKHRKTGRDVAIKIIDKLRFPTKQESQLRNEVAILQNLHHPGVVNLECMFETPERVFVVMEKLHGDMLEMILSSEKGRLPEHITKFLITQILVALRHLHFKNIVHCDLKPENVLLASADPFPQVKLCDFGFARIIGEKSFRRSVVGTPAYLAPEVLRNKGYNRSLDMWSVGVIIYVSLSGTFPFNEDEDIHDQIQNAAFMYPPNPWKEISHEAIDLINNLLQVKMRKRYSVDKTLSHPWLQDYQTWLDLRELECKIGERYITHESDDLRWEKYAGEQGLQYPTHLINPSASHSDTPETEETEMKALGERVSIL
# [2] = test system: T2, Receptor-type tyrosine-protein kinase FLT3 (Homo sapiens), P36888 [D835Y]; test: Inhibition of human FLT3 D835Y mutant catalytic domain expressed in baculovirus assessed as substrate phosphorylation using fluorescence-labelled peptides as substrate at 1000 uM after 90 mins by microfluidic peptide phosphorylation assay
# T2 sequence (whole entry): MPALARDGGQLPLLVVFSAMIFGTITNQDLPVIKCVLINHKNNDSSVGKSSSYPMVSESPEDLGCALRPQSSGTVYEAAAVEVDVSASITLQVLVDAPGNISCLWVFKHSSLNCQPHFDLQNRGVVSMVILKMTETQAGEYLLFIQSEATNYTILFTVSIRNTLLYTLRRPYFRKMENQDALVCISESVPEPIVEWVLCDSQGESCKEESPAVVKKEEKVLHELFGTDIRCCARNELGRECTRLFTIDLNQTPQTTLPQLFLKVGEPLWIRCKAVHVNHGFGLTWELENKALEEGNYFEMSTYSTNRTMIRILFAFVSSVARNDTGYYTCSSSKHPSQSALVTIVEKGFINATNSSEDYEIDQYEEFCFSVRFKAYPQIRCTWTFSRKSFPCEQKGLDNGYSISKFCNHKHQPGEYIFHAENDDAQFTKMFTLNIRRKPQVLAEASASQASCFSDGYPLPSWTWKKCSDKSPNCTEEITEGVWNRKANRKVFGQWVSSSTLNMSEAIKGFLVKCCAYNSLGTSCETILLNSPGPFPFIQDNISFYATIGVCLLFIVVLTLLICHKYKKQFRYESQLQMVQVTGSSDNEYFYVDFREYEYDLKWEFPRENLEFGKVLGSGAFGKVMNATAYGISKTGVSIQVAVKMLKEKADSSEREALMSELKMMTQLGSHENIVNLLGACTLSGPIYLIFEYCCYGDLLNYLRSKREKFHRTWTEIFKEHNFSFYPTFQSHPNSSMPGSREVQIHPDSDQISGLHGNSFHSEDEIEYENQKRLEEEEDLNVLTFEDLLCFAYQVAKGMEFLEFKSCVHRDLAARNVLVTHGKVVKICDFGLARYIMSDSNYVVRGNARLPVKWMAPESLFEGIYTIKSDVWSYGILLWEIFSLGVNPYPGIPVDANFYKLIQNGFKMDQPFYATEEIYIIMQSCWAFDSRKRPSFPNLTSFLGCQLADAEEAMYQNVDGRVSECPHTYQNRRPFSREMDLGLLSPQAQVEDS
# [3] = target: T3, Serine/threonine-protein kinase Sgk3 (Homo sapiens) (UniProt Q96BR1); test: Inhibition of human full length SGK3 expressed in baculovirus assessed as substrate phosphorylation using fluorescence-labelled peptides as substrate at 2 uM after 90 mins by microfluidic peptide phosphorylation assay
# T3 sequence (whole entry): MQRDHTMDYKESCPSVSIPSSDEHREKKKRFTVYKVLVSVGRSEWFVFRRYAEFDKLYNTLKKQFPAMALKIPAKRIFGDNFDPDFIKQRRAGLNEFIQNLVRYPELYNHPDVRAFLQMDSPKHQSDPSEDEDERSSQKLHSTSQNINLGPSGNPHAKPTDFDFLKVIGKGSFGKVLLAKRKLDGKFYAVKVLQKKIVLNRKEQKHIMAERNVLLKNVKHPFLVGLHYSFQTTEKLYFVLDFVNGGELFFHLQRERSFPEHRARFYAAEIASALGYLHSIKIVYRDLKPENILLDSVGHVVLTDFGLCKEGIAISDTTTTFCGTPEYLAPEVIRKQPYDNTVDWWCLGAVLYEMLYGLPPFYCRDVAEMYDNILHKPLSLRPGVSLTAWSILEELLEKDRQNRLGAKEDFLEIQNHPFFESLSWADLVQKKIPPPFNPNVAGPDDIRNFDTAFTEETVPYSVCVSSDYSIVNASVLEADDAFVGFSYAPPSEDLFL
# [4] = target: T4, Mitogen-activated protein kinase 13 (Homo sapiens) (UniProt O15264); test: Inhibition of human full length p38 delta expressed in Escherichia coli cell assessed as substrate phosphorylation using fluorescence-labelled peptides as substrate at 8 uM after 90 mins by microfluidic peptide phosphorylation assay
# T4 sequence (whole entry): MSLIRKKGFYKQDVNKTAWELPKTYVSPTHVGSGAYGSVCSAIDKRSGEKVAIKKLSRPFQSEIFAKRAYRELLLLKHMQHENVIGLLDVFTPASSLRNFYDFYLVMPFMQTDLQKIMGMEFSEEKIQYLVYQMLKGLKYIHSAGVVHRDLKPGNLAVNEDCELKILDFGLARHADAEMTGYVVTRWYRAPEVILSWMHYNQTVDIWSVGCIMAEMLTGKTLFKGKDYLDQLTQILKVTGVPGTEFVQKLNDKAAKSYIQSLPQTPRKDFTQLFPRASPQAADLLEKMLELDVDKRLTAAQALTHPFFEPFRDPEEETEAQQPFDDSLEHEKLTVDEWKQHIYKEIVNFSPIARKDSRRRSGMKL
structure (smiles),measurement,setting,value
NCCc1ccc(-c2ncnc3[nH]cnc23)cc1,inhibition,[1],44%
c1cnc2[nH]ccc2c1,inhibition,[2],76%
NC1CCN(c2ncnc3[nH]ccc23)CC1,inhibition,[3],34.5%
NCC1CCN(c2ncnc3[nH]ccc23)CC1,inhibition,[4],5.5%
